Experimental data reported in publication PMC3809513, “Imidazopyridazines as potent inhibitors of Plasmodium falciparum calcium-dependent protein kinase 1 (PfCDPK1): Preparation and evaluation of pyrazole linked analogues^” (Bioorganic & Medicinal Chemistry Letters, 2013).
pEC50, pIC50: −log10 of the molar value. Read-outs that look alike come from different tables or passages of the source.

Legend:
P. falciparum [1] = tested on: P. falciparum; parameters: method as in PMID 23570789; conditions: reference compound 2; read-out: Pf EC50; cited from earlier work
[2] = parameters: method as in PMID 23570789; conditions: % remaining after 30 min incubation with human liver microsomes; cited from earlier work
[3] = parameters: method as in PMID 23570789; conditions: % remaining after 30 min incubation with mouse liver microsomes; cited from earlier work
PfCDPK1 = PfCDPK1 (Plasmodium falciparum, UniProt P62344); test: PfCDPK1 enzyme inhibition; format: biochemical; conditions: for LLE: LLE = pIC50 − m Log D
P. falciparum [4] = test: P. falciparum parasite growth assay (FACS, hydroethidine); format: cell-based, Plasmodium falciparum; conditions: in vitro parasite growth, compounds added 24 h post-invasion, cells recovered 48 h later; for pEC50: Plasmodium falciparum, read-out: Pf EC50
Experimental: [12] P. falciparum EC50 values were measured using an in vitro model of malaria parasite growth. Compounds were diluted into 2% DMSO and added to parasites 24 h post-invasion in a 96-well plate and incubated under static conditions. Cells were recovered 48 h later and processed for FACS analysis using hydroethidine to stain parasite DNA. Data was acquired using a Guava easyCyte Plus flow cytometer with ExpressPro software. Growth inhibition was calculated using the following formula: % growth inhibition = (1 − [parasitaemia of culture/parasitaemia of control culture]) × 100.

[5] = LogD shake flask (octanol/PBS); format: physicochemical; conditions: measured log D
Experimental: LogD measurements were carried out using the shake flask method. Compound was diluted from 10 mM DMSO stock solution into an eppendorf containing equal amounts of octanol and phosphate buffered saline (PBS) to give a final concentration of 100 μM. The tubes were shaken for 12 hours, centrifuged at 10000 rpm for 10 minutes and samples taken from the octanol and PBS layers. The samples from both layers were analysed in triplicate by LC-MS/MS (Agilent Technologies G6410 series, triple quadrupole with MM-ESI ion source) using optimised multiple reaction monitoring (MRM) scans and a standard column gradient on an Acquity UPLC BEH C8 1.7 μm column, running acetonitrile and water with 0.05% Acetic Acid as the mobile phase. The ratios of areas of the peaks were used to calculate the LogD in accordance with the equation: LogD = Log10(Area-TL/Area BL)

[6] = Microsomal turnover, human liver microsomes; format: in vitro ADME; conditions: % remaining after 30 min, 1 μM compound
Experimental: Microsomal turnover data was obtained using either human liver microsomes (HLM) or mouse liver microsomes (MLM) obtained from BD Biosciences. The compounds are pre-incubated at 37 °C for 5 minutes with the microsomes and the reaction was initiated by adding an equal volume of NADPH generating solution, also obtained from BD Biosciences. The final compound concentration in the incubation is 1 μM, and the microsomal protein concentration is 0.5 mg/ml for HLM and 0.2 mg/ml for MLM. A sample is taken at t=0 and quenched with 2x volume of ice-cold methanol containing an internal standard reference compound (carbamazepine). […] The samples were centrifuged at 10000 rpm for 10 minutes and the supernatant taken for analysis in triplicate by LC-MS/MS (Agilent Technologies G6410 series, triple quadrupole with MM-ESI ion source) using optimised multiple reaction monitoring (MRM) scans and a standard column gradient on an Acquity UPLC BEH C8 1.7μm column, running acetonitrile and water with 0.05% acetic acid as the mobile phase. […] Verapamil is used as the standard compound for this assay.

[7] = Microsomal turnover, mouse liver microsomes; format: in vitro ADME; conditions: % remaining after 30 min, 1 μM compound
Experimental: Microsomal turnover data was obtained using either human liver microsomes (HLM) or mouse liver microsomes (MLM) obtained from BD Biosciences. The compounds are pre-incubated at 37 °C for 5 minutes with the microsomes and the reaction was initiated by adding an equal volume of NADPH generating solution, also obtained from BD Biosciences. The final compound concentration in the incubation is 1 μM, and the microsomal protein concentration is 0.5 mg/ml for HLM and 0.2 mg/ml for MLM. A sample is taken at t=0 and quenched with 2x volume of ice-cold methanol containing an internal standard reference compound (carbamazepine). The reaction is agitated at 37 °C for 40 minutes (HLM) and 30 minutes (MLM) when a further sample was taken and quenched in an identical fashion. The samples were centrifuged at 10000 rpm for 10 minutes and the supernatant taken for analysis in triplicate by LC-MS/MS (Agilent Technologies G6410 series, triple quadrupole with MM-ESI ion source) using optimised multiple reaction monitoring (MRM) scans and a standard column gradient on an Acquity UPLC BEH C8 1.7μm column, running acetonitrile and water with 0.05% acetic acid as the mobile phase. The % turnover is obtained by calculating the percentage difference of the peak areas, normalised to the internal standard, at t=0 and t=40 (for human) or t=30 (for mouse). Verapamil is used as the standard compound for this assay.

[8] = PAMPA passive permeability; format: in vitro ADME; conditions: 5 hours at room temperature
Experimental: PAMPA assays were carried out using a 96 well BD Biosciences pre-coated PAMPA plate with 0.4 μm polyvinylidene fluoride filter plate, precoated with structured layers of phospholipids. […] The compound solution was placed in the lower ‘Donor’ well of the plate and the upper ‘Acceptor’ well of the plate was filled with PBS:DMSO 98:2 buffer containing no compound following which the plates was assembled then incubated for 5 hours at room temperature. After incubation the Donor and Acceptor wells were sampled into flat UV bottomed plates and a six fold 1:2 dilution series created for each compound starting at the appropriate top concentration for each compound. The UV absorbance for these solutions was read across 230-400 nm at 1 nm intervals using a TECAN Safire II plate reader and a suitable UV wavelength chosen around the UV maximum of each compound. This was used to calculate the concentration in the Donor and Acceptor wells for each compound. The compound permeability Papp (nm s^-1) and % mass retention was then calculated for each compound in accordance with the following equations:
Ceq = [CD(t)* VD+ CA(t)*VA]/(VD+VA)
% mass retention = 1 – [CD(t)*VD + CA(t)*VA]/(C0*VD)]
A = Filter Area, VD = Donor Well Volume, VA = Acceptor Well Volume, t = incubation time (secs), CA(t) = Acceptor concentration at time t, CD(t) = Donor concentration at time t, C0 = Initial Donor concentration
No result was reported for compounds where % mass retention exceeded 50%.

[9] = molecular target: 73-member human kinase panel; test: Kinase selectivity profiling against human kinase panel; format: biochemical; conditions: 73-member human kinase panel at 1 μM concentration; green <50%, orange 50–80%, red >80% inhibition in Figure 2
Source text: They also display key ADME properties which serve to complement analogues such as 2, where a 6-membered aryl or heteroaryl ring linker had been used (Table 5). As expected, the pyrazole linker has contributed to lowering log D in these new analogues, and perhaps more importantly has promoted a significant increase in ligand lipophilic efficiency (LLE)[22] as compared to compounds such as 2. This parameter is well-known to offer a useful guide to potency and lipophilicity during the progression of chemical series from hits towards leads. In addition, we observed promising kinase selectivity profiles for key examples on screening against a human kinase panel at 1 μM concentration,[23] as shown in Figure 2. The aryl pyrazoles described here thus represent a useful additional possibility for progressing towards alternative early lead compounds with good development characteristics.
[23] Kinase selectivity profiling was carried out by the National Centre for Protein Kinase Profiling at the MRC Protein Phosphorylation Unit (University of Dundee, UK).

Sequence of PfCDPK1 (P62344 whole entry): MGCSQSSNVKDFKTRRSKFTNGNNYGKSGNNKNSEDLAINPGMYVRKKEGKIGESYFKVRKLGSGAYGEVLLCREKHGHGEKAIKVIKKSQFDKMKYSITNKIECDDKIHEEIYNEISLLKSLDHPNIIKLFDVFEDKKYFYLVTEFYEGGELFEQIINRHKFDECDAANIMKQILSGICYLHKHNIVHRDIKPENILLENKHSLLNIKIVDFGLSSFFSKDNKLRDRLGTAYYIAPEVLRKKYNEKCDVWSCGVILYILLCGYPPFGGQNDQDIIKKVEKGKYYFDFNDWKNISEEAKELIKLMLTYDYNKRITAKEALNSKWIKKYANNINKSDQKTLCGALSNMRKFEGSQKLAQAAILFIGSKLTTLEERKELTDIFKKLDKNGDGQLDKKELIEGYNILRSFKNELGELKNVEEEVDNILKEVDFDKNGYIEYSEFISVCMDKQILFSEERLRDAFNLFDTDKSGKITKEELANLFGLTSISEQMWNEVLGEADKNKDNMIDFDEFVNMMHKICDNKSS

Row | Compound | pIC50 (PfCDPK1) | LLE (PfCDPK1) | LE (ligand efficiency) (PfCDPK1; from PfCDPK1 potency) | pEC50 (P. falciparum [4]) | Pf EC50 (P. falciparum [4]) | logD at 12 h, 100 µM [5] | HLM % rem [6] [%] | MLM % rem [7] [%] | Papp at 5 h, up to 200 µM [8] [nm/s] | pEC50 (P. falciparum [1]) | HLM % rem [2] [%] | MLM % rem [3] [%] | Kinases inhibited [9]
1 | CC(C)CCNc1ccc(-c2cnc3ccc(NC4CCN(C)CC4)nn23)cn1 [Compound 2] |  |  |  |  |  |  |  |  |  | 6.40 | 63 | 85 | 
2 | Cc1nn(-c2ccccc2)cc1-c1cnc2ccc(NC3CCN(C)CC3)nn12 [Compound 11] | 5.44 |  |  |  |  |  |  |  |  |  |  |  | 
3 | c1ccc(-n2cc(-c3cnc4ccc(NC5CCNCC5)nn34)cn2)cc1 [Compound 12] | 7.37 | 4.5 | 0.37 | 6.01 | sub-micromolar | 1.8 | 81 | 74 | 23 |  |  |  | PRK2, PKD1, MSK1, MNK1, SmMLCK, CHK1, CHK2, Aurora B, NUAK1, PIM1, GCK, MINK1, MLK1, MLK3, IRAK4, SRC, LCK, YES1, EPH-A2, FGF-R1, HER4, VEG-FR
4 | CN1CCC(Nc2ccc3ncc(-c4cnn(-c5ncc(F)cn5)c4)n3n2)CC1 [Compound 25] | 6.31 |  |  |  |  | 2 |  |  |  |  |  |  | 
5 | Clc1ccc2ncc(Br)n2n1 [Compound 27] |  |  |  |  |  |  |  |  |  |  |  |  | RSK1, PRK2, CHK1, MELK, NUAK 1, PIM1, MST2, GCK, MINK1, MLK1, MLK3, IRAK4, SRC, LCK, CSK, YES1, BTK, EPH-A2, EPH-B3, HER4, VEG-FR
6 | N[C@H]1CC[C@H](Nc2ccc3ncc(-c4cnn(-c5ccc(F)cc5)c4)n3n2)CC1 [Compound 29] | 7.25 | 5.3 |  | 6.58 |  | 1.9 | 80 | 84 | 43 |  |  |  | 
7 | CN1CCC(Oc2ccc3ncc(-c4cnn(-c5ccc(F)cc5)c4)n3n2)CC1 [Compound 31] | 6.74 |  |  |  |  | 2.6 | 61 | 38 | 214 |  |  |  | 
8 | Fc1ccc(-n2cc(-c3cnn4ccc(C5CCCNC5)nc34)cn2)cc1 (centres unmarked) [Compound 34] | 6.75 |  |  | 5.42 |  | 1.4 | 80 | 56 | 217 |  |  |  | 
9 | CN1CCC(Nc2ccc3ncc(-c4cnn(-c5ccc(C#N)cc5)c4)n3n2)CC1 [Compound 36] | 6.07 |  |  |  |  | 1.9 | 79 | 59 |  |  |  |  | RSK1, ROCK2, PRK2, MNK1, MNK2, SmMLCK, PHK, CHK1, MARK3, BRSK2, MELK, NUAK1, CK1, CK2, DRYK1A, PIM1, PAK4, MST2, GCK, MINK1, MLK1, MLK3, IRAK4, SRC, YES1, BTK, EPH-A2, HER4, VEG-FR

The remaining compounds from weak to strong by pIC50 (PfCDPK1), led by results:

Row | pIC50 (PfCDPK1) | LLE (PfCDPK1) | LE (ligand efficiency) (PfCDPK1; from PfCDPK1 potency) | pEC50 (P. falciparum [4]) | Pf EC50 (P. falciparum [4]) | logD at 12 h, 100 µM [5] | HLM % rem [6] [%] | MLM % rem [7] [%] | Papp at 5 h, up to 200 µM [8] [nm/s] | Compound | pEC50 (P. falciparum [1]) | HLM % rem [2] [%] | MLM % rem [3] [%] | Kinases inhibited [9]
10 | 6.42 |  |  | 5.45 |  | 2.5 | 55 | 33 |  | CN1CCCC(c2ccn3ncc(-c4cnn(-c5ccc(F)cc5)c4)c3n2)C1 (centres unmarked) [Compound 35] |  |  |  | 
11 | 6.72 |  |  | 6.59 |  | 2.7 | 70 | 59 |  | CN1CCC(Nc2ccc3ncc(-c4cnn(-c5cccc(C#N)c5)c4)n3n2)CC1 [Compound 37] |  |  |  | 
12 | 6.89 |  |  | 6.43 |  | 2.8 | 42 | 66 | 104 | Fc1ccc(-n2cc(-c3cnc4ccc(N[C@H]5CC[C@H](N6CCCC6)CC5)nn34)cn2)cc1 [Compound 30] |  |  |  | 
13 | 7.12 |  |  | 6.25 |  | 3.4 |  |  |  | CN1CCC(Nc2ccc3ncc(-c4cnn(-c5ccccc5F)c4)n3n2)CC1 [Compound 16] |  |  |  | 
14 | 7.51 |  |  | 6.44 |  | 2.2 | 66 | 51 | 0.5 | CN1CCC(Nc2ccc3ncc(-c4cnn(-c5cnccn5)c4)n3n2)CC1 [Compound 26] |  |  |  | 
